# Laboratory results: US20240408086A1, “USE OF LUVADAXISTAT FOR THE TREATMENT OF COGNITIVE IMPAIRMENT” (TAKEDA PHARMACEUTICAL COMPANY LIMITED, priority 2021, published 2024)
# Tested on: adult patients with persistent negative symptoms of schizophrenia
# Type: in vivo, human
# From the text: To assess changes in cognitive impairment associated with schizophrenia (CIAS), secondary endpoints included the 12-week change from baseline in the Brief Assessment of Cognition in Schizophrenia (BACS) composite score, a measure of cognition across multiple domains, and the Schizophrenia Cognition Rating Scale (SCORS) score, a measure of day-to-day cognitive functioning requiring input from an adult informant. Secondary endpoints were not corrected for multiplicity.
# The BACS is specifically designed to measure treatment-related improvements in cognition and includes alternate forms. BACS is a reliable and sensitive measure of cognitive function in schizophrenia. The BACS is a cognition assessment battery that assesses 6 domains of cognitive function found to be consistently impaired in schizophrenia: verbal memory; working memory; motor speed; attention; executive functions; and verbal fluency. The primary measure from each test of the BACS is standardized by creating T-scores whereby the mean of the test session of a matched reference healthy participant is set to 50 and the standard deviation set to 10.
# [1] = 125 mg once daily, MMRM, preliminary analysis
# [2] = 125 mg once daily, preliminary analysis
smiles,measurement,setting,value
"O=c1[nH]nc(CCc2ccc(C(F)(F)F)cc2)cc1O [Compound (I), luvadaxistat]","BACS Attention Cognition Domain, Difference from Placebo for Week 6, LS Mean (SE)","50 mg, Week 6, MMRM",−0.1 (1.12)
same,"BACS Executive Functions Cognition Domain, Adjusted Change from Baseline to Week 6, LS Mean (SE)","50 mg, Week 6, MMRM",0.9 (1.22)
same,"BACS Executive Functions Cognition Domain, Difference from Placebo for Week 6, LS Mean (SE)","50 mg, Week 6, MMRM",2.1 (1.53)
same,"BACS Verbal Fluency Cognition Domain, Adjusted Change from Baseline to Week 6, LS Mean (SE)","50 mg, Week 6, MMRM",−0.3 (0.70)
same,"BACS Verbal Fluency Cognition Domain, Difference from Placebo for Week 6, LS Mean (SE)","50 mg, Week 6, MMRM",−0.5 (0.87)
same,"BACS Attention Cognition Domain, Change from Baseline to Week 12, Mean (SD)","50 mg, Week 12",2.2 (6.95)
same,"BACS Attention Cognition Domain, Change from Baseline to Week 12, Median","50 mg, Week 12",2.0
same,"BACS Attention Cognition Domain, Week 12, Mean (SD)","50 mg, Week 12",38.0 (11.83)
same,"BACS Attention Cognition Domain, Week 12, Median","50 mg, Week 12",39.0
same,"BACS Executive Functions Cognition Domain, Change from Baseline to Week 12, Mean (SD)","50 mg, Week 12",2.6 (7.73)
same,"BACS Executive Functions Cognition Domain, Change from Baseline to Week 12, Median","50 mg, Week 12",1.0
same,"BACS Executive Functions Cognition Domain, Week 12, Mean (SD)","50 mg, Week 12",46.4 (10.55)
same,"BACS Executive Functions Cognition Domain, Week 12, Median","50 mg, Week 12",49.5
same,"BACS Verbal Fluency Cognition Domain, Change from Baseline to Week 12, Mean (SD)","50 mg, Week 12",1.5 (5.87)
same,"BACS Verbal Fluency Cognition Domain, Change from Baseline to Week 12, Median","50 mg, Week 12",0.0
same,"BACS Verbal Fluency Cognition Domain, Week 12, Mean (SD)","50 mg, Week 12",41.8 (10.41)
same,"BACS Verbal Fluency Cognition Domain, Week 12, Median","50 mg, Week 12",40.0
same,"BACS Attention Cognition Domain, Adjusted Change from Baseline to Week 12, LS Mean (SE)","50 mg, Week 12, MMRM",2.3 (1.02)
same,"BACS Attention Cognition Domain, Difference from Placebo for Week 12, LS Mean (SE)","50 mg, Week 12, MMRM",0.4 (1.28)
same,"BACS Executive Functions Cognition Domain, Adjusted Change from Baseline to Week 12, LS Mean (SE)","50 mg, Week 12, MMRM",1.8 (1.09)
same,"BACS Executive Functions Cognition Domain, Difference from Placebo for Week 12, LS Mean (SE)","50 mg, Week 12, MMRM",1.2 (1.36)
same,"BACS Verbal Fluency Cognition Domain, Adjusted Change from Baseline to Week 12, LS Mean (SE)","50 mg, Week 12, MMRM",1.2 (0.85)
same,"BACS Verbal Fluency Cognition Domain, Difference from Placebo for Week 12, LS Mean (SE)","50 mg, Week 12, MMRM",0.2 (1.07)
same,"BACS Verbal Memory Cognition Domain, Difference from Placebo for Week 6, LS Mean (SE)","125 mg once daily, MMRM, one-sided unadjusted p 0.025, preliminary analysis",2.5 (1.29)
same,"BACS Composite Score, Difference from Placebo for Week 6, LS Mean (SE)","125 mg once daily, MMRM, one-sided unadjusted p 0.038, preliminary analysis",1.8 (1.02)
same,"BACS Motor Speed Cognition Domain, Difference from Placebo for Week 12, LS Mean (SE)","125 mg once daily, MMRM, one-sided unadjusted p 0.067, preliminary analysis",1.8 (1.18)
same,"BACS Composite Score, Difference from Placebo for Week 12, LS Mean (SE)","125 mg once daily, MMRM, one-sided unadjusted p 0.095, preliminary analysis",1.5 (1.16)
same,"BACS Verbal Memory Cognition Domain, Difference from Placebo for Week 12, LS Mean (SE)","125 mg once daily, MMRM, one-sided unadjusted p 0.164, preliminary analysis",1.4 (1.44)
same,"BACS Working Memory Cognition Domain, Difference from Placebo for Week 6, LS Mean (SE)","125 mg once daily, MMRM, one-sided unadjusted p 0.239, preliminary analysis",0.8 (1.16)
same,"BACS Working Memory Cognition Domain, Difference from Placebo for Week 12, LS Mean (SE)","125 mg once daily, MMRM, one-sided unadjusted p 0.406, preliminary analysis",0.3 (1.35)
same,"BACS Motor Speed Cognition Domain, Difference from Placebo for Week 6, LS Mean (SE)","125 mg once daily, MMRM, one-sided unadjusted p 0.753, preliminary analysis",−0.9 (1.26)
same,"BACS Composite Score, Adjusted Change from Baseline to Week 6, LS Mean (SE)",[1],1.4 (0.80)
same,"BACS Composite Score, Adjusted Change from Baseline to Week 12, LS Mean (SE)",[1],2.3 (0.91)
same,"BACS Motor Speed Cognition Domain, Adjusted Change from Baseline to Week 6, LS Mean (SE)",[1],−1.0 (0.98)
same,"BACS Motor Speed Cognition Domain, Adjusted Change from Baseline to Week 12, LS Mean (SE)",[1],1.3 (0.93)
same,"BACS Verbal Memory Cognition Domain, Adjusted Change from Baseline to Week 6, LS Mean (SE)",[1],1.2 (1.01)
same,"BACS Verbal Memory Cognition Domain, Adjusted Change from Baseline to Week 12, LS Mean (SE)",[1],0.8 (1.13)
same,"BACS Working Memory Cognition Domain, Adjusted Change from Baseline to Week 6, LS Mean (SE)",[1],0.9 (0.90)
same,"BACS Working Memory Cognition Domain, Adjusted Change from Baseline to Week 12, LS Mean (SE)",[1],1.0 (1.06)
same,"BACS Composite Score, Change from Baseline to Week 6, Mean (SD)",[2],1.9 (4.95)
same,"BACS Composite Score, Change from Baseline to Week 6, Median",[2],2.0
same,"BACS Composite Score, Change from Baseline to Week 12, Mean (SD)",[2],2.9 (6.54)
same,"BACS Composite Score, Change from Baseline to Week 12, Median",[2],3.5
same,"BACS Composite Score, Week 6, Mean (SD)",[2],35.6 (14.55)
same,"BACS Composite Score, Week 6, Median",[2],37.0
same,"BACS Composite Score, Week 12, Mean (SD)",[2],37.1 (15.02)
same,"BACS Composite Score, Week 12, Median",[2],38.5
same,"BACS Motor Speed Cognition Domain, Change from Baseline to Week 6, Mean (SD)",[2],0.0 (5.97)
same,"BACS Motor Speed Cognition Domain, Change from Baseline to Week 6, Median",[2],0.5
same,"BACS Motor Speed Cognition Domain, Change from Baseline to Week 12, Mean (SD)",[2],2.5 (7.60)
same,"BACS Motor Speed Cognition Domain, Change from Baseline to Week 12, Median",[2],2.0
same,"BACS Motor Speed Cognition Domain, Week 6, Mean (SD)",[2],39.6 (10.80)
same,"BACS Motor Speed Cognition Domain, Week 6, Median",[2],39.0
same,"BACS Motor Speed Cognition Domain, Week 12, Mean (SD)",[2],42.6 (10.35)
same,"BACS Motor Speed Cognition Domain, Week 12, Median",[2],42.0
same,"BACS Verbal Memory Cognition Domain, Change from Baseline to Week 6, Mean (SD)",[2],1.8 (7.71)
same,"BACS Verbal Memory Cognition Domain, Change from Baseline to Week 6, Median",[2],2.5
same,"BACS Verbal Memory Cognition Domain, Change from Baseline to Week 12, Mean (SD)",[2],1.6 (8.07)
same,"BACS Verbal Memory Cognition Domain, Change from Baseline to Week 12, Median",[2],1.0
same,"BACS Verbal Memory Cognition Domain, Week 6, Mean (SD)",[2],42.4 (12.62)
same,"BACS Verbal Memory Cognition Domain, Week 6, Median",[2],42.0
same,"BACS Verbal Memory Cognition Domain, Week 12, Mean (SD)",[2],42.3 (13.54)
same,"BACS Verbal Memory Cognition Domain, Week 12, Median",[2],42.5
same,"BACS Working Memory Cognition Domain, Change from Baseline to Week 6, Mean (SD)",[2],1.5 (5.89)
